Measured values from patent US8765748B2, “Indazolyl, benzimidazolyl, benzotriazolyl substituted indolinone derivatives as kinase inhibitors useful in the treatment of cancer” (University Health Network, priority 2007, dated 2014).

Columns and labels:
human PLK4 = target: T1, human PLK4 (Homo sapiens, UniProt O00444); experiment: PLK4 Inhibition Assay (indirect ELISA); type: biochemical; details: 15 μM ATP, 4 nM GST-PLK4; read-out: PLK4 IC50 Ranges
T1 construct: amino terminal GST fusion of residues 1-391 of human PLK4; made in house; host or cells: E. coli
T1 sequence (O00444 1-391): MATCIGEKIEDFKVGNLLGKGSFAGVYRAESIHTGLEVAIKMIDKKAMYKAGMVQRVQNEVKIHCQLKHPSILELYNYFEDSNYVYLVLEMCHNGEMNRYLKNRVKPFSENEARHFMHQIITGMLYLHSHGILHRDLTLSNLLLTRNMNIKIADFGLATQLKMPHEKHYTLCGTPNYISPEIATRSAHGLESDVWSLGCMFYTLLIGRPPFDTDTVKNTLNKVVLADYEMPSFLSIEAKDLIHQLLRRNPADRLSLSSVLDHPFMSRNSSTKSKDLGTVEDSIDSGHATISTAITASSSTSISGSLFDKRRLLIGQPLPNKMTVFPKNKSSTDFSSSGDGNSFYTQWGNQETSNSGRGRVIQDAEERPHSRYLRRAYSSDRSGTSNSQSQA
Procedure, shortened: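 Dephosphorylated (lambda phosphatase) GST-PLK4 activity read by indirect ELISA. Compounds were pre-incubated with enzyme for 15 minutes before ATP was added. IC50 came from a non-linear 4-point logistic fit.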

PLK1 = target: T2, PLK1 (Homo sapiens, UniProt P53350); experiment: PLK1 Inhibition Assay (Z-Lyte); type: biochemical; details: for IC50: 25 μM ATP, 8 nM PLK1, read-out: PLK1 IC50 Ranges; for inhibition at 10 µM: 10 μM compound, read-out: PLK1 relative inhibition percentage at a dose of 10 μM
T2 construct: purchased Invitrogen PV3501
Protocol: PLK1 inhibition was determined using the Z-Lyte assay kit from Invitrogen (cat #PV3802). […] The % inhibition values were determined according to the manufacturer's directions and IC50 values were obtained using a non-linear 4 point logistic curve fit (XLfit4, IDBS)

PLK2 = target: T3, PLK2 (Homo sapiens, UniProt Q9NYY3); experiment: PLK2 Inhibition Assay (Z-Lyte); type: biochemical; details: for inhibition at 10 µM: 10 μM compound, read-out: PLK2 relative inhibition percentage at a dose of 10 μM
T3 construct: purchased Invitrogen PV4204
Protocol: (§1) PLK2 inhibition was determined using the Z-Lyte assay kit from Invitrogen (cat #PV3802). The assay was performed using the recommended manufacturer's instructions with 60 μM ATP and 133 nM PLK2 (Invitrogen cat #PV4204). The % inhibition values were determined according to the manufacturer's directions and IC50 values were obtained using a non-linear 4 point logistic curve fit (XLfit4, IDBS)

Aurora A = target: T4, Aurora A (Homo sapiens, UniProt O14965); experiment: Aurora A Inhibition Assay (Z-Lyte); type: biochemical; details: for inhibition at 10 µM: 10 μM compound, read-out: Aurora A relative inhibition percentage at a dose of 10 μM; for IC50: 20 μM ATP, 12 nM Aurora A, read-out: Aurora A IC50 Ranges
T4 construct: purchased Invitrogen PV3612
T4 sequence (O14965 1-403): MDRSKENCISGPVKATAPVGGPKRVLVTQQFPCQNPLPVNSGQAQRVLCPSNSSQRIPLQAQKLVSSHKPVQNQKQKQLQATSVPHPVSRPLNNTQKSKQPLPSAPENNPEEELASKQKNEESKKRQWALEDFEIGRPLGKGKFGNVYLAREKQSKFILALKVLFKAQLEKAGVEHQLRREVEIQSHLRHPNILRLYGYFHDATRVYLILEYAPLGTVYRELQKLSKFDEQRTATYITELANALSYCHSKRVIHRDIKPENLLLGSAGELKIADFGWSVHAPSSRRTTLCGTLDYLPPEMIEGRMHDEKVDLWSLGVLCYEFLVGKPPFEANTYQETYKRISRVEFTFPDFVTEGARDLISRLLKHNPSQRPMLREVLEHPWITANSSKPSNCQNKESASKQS
Protocol: as §1, with “Aurora A” for “PLK2”, “Invitrogen.” for “Invitrogen (cat #PV3802).”, “20” for “60”, “12” for “133”, “#PV3612).” for “#PV4204).”

Aurora B = target: T5, Aurora B (Homo sapiens, UniProt Q96GD4); experiment: Aurora B Inhibition Assay (Z-Lyte); type: biochemical; details: for IC50: 128 μM ATP, 28 nM Aurora B, read-out: Aurora B IC50 Ranges
T5 construct: purchased Invitrogen PV3970
Protocol: as §1, with “Aurora B” for “PLK2”, “Invitrogen.” for “Invitrogen (cat #PV3802).”, “128” for “60”, “28” for “133”, “#PV3970).” for “#PV4204).”

[1] = test system: MCF-7 luminal breast cancer cell line; experiment: Cell growth inhibition, Sulforhodamine B assay (SRB); type: cell-based; details: Homo sapiens, MCF7, 120 h; 5 days culture, SRB; read-out: Cell Line GI50 Range, MCF-7
Protocol: (§2) Breast cancer cells (MCF-7, MDA-MB-468, HCC1954), colon cancer cells (SW620) and lung cancer cells (A549), together with human mammary epithelial primary cells (HMEC), were seeded (1000 to 4000 per 80 μl per well depending on the cell growth rate) into 96 well plates, 24 hours before compound overlay. Compounds were prepared as 10 mM stock solutions in 100% DMSO which were diluted with DMEM (Dulbecco's Modified Eagle's Medium) cell growth Medium (Invitrogen, Burlington, ON, Canada) containing 10% FBS (Fetal Bovine Serum) to concentrations ranging from 50 nM to 250 μM. Aliquots (20 μl) from each concentration were overlaid to 80 μl of the pre-seeded cells in the 96 well plates to make final concentrations of 10 nM to 50 μM. The cells were cultured for 5 days before the Sulforhodamine B assay (SRB) was performed to determine the compound's cell growth inhibition activity.
(§3) Sulforhodamine B (purchased from Sigma, Oakville, ON, Canada) is a water-soluble dye that binds to the basic amino acids of the cellular proteins. Thus, colorimetric measurement of the bound dye provides an estimate of the total protein mass that is related to the cell number. the cells are fixed in situ by gently aspirating off the culture media and adding 50 μl ice cold 10% Tri-chloroacetic Acid (TCA) per well and incubate at 4° C. for 30-60 min, The plates are washed with water five times and allowed to air dry for 5 min. Addition of 50 μl 0.4% (w/v) SRB solution in 1% (v/v) acetic acid to each well and incubatation for 30 min at RT completes the staining reaction. Following staining, plates are washed four times with 1% acetic acid to remove unbound dye and then allowed to air dry for 5 min. The stain is solubilized with 100 μl of 10 mM Tris pH10.5 per well. Absorbance is read at 570 nm.
(§4) The percentage (%) of relative growth inhibition was calculated by comparing to DMSO treated only cells (100%). GI50's were determined for compounds with cytotoxic activity. The GI50 was calculated using GraphPad PRISM software (GraphPad Software, Inc., San Diego, Calif., USA).

[2] = test system: MDA-MB-468 basal breast cancer cell line; experiment: as above; type: cell-based; details: Homo sapiens, MDA-MB-468, 120 h; 5 days culture, SRB; read-out: Cell Line GI50 Range, MDA-MB-468
Protocol: as §2, §3, §4

T5 sequence (Q96GD4 whole entry): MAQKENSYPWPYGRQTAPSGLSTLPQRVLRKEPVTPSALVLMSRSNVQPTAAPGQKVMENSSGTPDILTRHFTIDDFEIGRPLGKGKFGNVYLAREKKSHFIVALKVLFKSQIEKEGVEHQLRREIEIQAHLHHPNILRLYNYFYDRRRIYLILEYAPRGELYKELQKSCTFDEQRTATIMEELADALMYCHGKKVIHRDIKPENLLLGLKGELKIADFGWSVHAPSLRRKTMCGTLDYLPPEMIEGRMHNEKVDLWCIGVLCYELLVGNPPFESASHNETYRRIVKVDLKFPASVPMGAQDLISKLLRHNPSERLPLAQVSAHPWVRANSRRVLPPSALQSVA
T3 sequence (Q9NYY3 whole entry): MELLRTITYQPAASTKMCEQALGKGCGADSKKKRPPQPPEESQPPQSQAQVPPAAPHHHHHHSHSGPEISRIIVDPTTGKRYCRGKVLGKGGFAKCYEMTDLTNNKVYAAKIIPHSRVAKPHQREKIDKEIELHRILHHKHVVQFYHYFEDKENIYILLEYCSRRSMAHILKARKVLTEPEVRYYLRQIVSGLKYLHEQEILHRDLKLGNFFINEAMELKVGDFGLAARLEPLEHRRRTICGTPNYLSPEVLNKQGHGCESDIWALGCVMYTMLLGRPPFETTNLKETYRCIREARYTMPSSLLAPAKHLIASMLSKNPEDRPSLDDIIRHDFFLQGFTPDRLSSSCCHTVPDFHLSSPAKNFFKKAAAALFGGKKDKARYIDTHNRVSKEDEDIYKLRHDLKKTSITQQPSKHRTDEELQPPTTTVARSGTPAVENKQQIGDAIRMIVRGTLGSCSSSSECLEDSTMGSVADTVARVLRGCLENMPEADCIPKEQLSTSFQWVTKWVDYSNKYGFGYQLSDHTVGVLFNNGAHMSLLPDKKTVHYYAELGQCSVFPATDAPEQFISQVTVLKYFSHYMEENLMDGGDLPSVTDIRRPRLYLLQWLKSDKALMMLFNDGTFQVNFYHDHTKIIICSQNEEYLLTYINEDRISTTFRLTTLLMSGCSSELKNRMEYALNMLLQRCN
T2 sequence (P53350 whole entry): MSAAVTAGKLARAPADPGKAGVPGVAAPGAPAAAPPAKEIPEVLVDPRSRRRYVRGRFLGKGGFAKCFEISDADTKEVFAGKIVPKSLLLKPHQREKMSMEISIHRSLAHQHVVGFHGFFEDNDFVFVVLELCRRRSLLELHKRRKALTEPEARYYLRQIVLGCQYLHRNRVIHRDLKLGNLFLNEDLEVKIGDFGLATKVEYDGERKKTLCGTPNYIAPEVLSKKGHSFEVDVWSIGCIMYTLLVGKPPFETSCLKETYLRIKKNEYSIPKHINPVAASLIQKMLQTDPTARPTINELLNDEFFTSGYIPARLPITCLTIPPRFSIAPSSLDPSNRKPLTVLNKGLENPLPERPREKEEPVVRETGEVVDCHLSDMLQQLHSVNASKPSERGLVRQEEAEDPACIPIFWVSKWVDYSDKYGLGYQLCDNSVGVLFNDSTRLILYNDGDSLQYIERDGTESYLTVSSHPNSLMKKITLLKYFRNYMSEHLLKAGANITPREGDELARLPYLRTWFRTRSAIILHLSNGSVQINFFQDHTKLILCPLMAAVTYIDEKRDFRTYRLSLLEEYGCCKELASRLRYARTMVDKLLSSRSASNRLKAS

Structure (SMILES) | IC50 (human PLK4) | IC50 (PLK1) | inhibition at 10 µM (PLK2) | inhibition at 10 µM (Aurora A) | IC50 (Aurora B) | GI50 [1] | GI50 [2] | inhibition at 10 µM (Aurora B; 10 μM compound, read-out: Aurora B relative inhibition percentage at a dose of 10 μM) | inhibition at 10 µM (PLK1) | IC50 (Aurora A) | IC50 (PLK2; 60 μM ATP, 133 nM PLK2, read-out: PLK2 IC50 Ranges)
O=C1Nc2ccc(F)cc2/C1=C/c1ccc2cn[nH]c2c1 [Example A32, (Z)-3-((1H-indazol-6-yl)methylene)-5-fluoroindolin-2-one] | < 5 µM | 5 to 50 µM | < 50% | > 50% | < 5 µM | 5 to 20 µM | 5 to 20 µM | – | – | – | –
O=C1Nc2cc(Cl)ccc2/C1=C\c1ccc2[nH]nnc2c1 [Example A4, (E)-3-((1H-benzo[d][1,2,3]triazol-5-yl)methylene)-6-chloroindolin-2-one] | 5 to 50 µM | 5 to 50 µM | – | – | – | 5 to 20 µM | 5 to 20 µM | – | – | – | –
CC(=O)Nc1ccc2c(c1)NC(=O)/C2=C/c1ccc2cn[nH]c2c1 [Example A13, (E)-N-(3-((1H-indazol-6-yl)methylene)-2-oxoindolin-6-yl)acetamide] | < 5 µM | 5 to 50 µM | < 50% | > 50% | – | – | – | < 50% | – | – | –
O=C1Nc2ccc(Br)cc2/C1=C\c1ccc2[nH]nnc2c1 [Example A3, (E)-3-((1H-benzo[d][1,2,3]triazol-5-yl)methylene)-5-bromoindolin-2-one] | < 5 µM | 5 to 50 µM | > 50% | < 50% | 5 to 50 µM | – | – | – | – | – | –
O=C1Nc2ccc(Cl)cc2/C1=C\c1ccc2cn[nH]c2c1 [Example A80, (E)-3-((1H-indazol-6-yl)methylene)-5-chloroindolin-2-one] | < 5 µM | – | < 50% | – | < 5 µM | – | – | – | < 50% | < 5 µM | –
O=C1Nc2ccccc2/C1=C\c1ccc2[nH]cnc2c1 [Example A19, (E)-3-((1H-benzo[d]imidazol-5-yl)methylene)indolin-2-one] | 5 to 50 µM | 5 to 50 µM | – | – | – | 5 to 20 µM | < 5 µM | – | – | – | –
COc1ccc2c(c1)C(=Cc1ccc3c(/C=C/C(=O)N4CCN(C)CC4)n[nH]c3c1)C(=O)N2 (mixture of isomers) [Example A118, (E and Z)-5-methoxy-3-((3-((E)-3-(4-methylpiperazin-1-yl)-3-oxoprop-1-enyl)-1H-indazol-6-yl)methylene)indolin-2-one] | < 5 µM | – | < 50% | – | < 5 µM | – | – | – | < 50% | < 5 µM | –
O=C1Nc2ccccc2C1=Cc1ccc2c(-c3cncnc3)n[nH]c2c1 (mixture of isomers) [Example A100, (E and Z)-3-((3-(pyrimidin-5-yl)-1H-indazol-6-yl)methylene)-indolin-2-one] | < 5 µM | – | < 50% | > 50% | < 5 µM | – | – | – | < 50% | – | –
O=C1Nc2ncccc2/C1=C\c1ccc2c(/C=C/c3ccccn3)n[nH]c2c1 [Example A72, (E)-3-((3-((E)-2-(pyridin-2-yl)vinyl)-1H-indazol-6-yl)methylene)-1H-pyrrolo[2,3-b]pyridin-2(3H)-one] | < 5 µM | – | < 50% | > 50% | < 5 µM | – | – | – | < 50% | – | –
O=C1Nc2ccccc2/C1=C\c1ccc2c(/C=C/c3ccccc3)n[nH]c2c1 [Example A58, (E)-3-((E)-(3-styryl-1H-indazol-6-yl)methylene)indolin-2-one] | < 5 µM | – | < 50% | – | < 5 µM | – | – | – | < 50% | < 5 µM | –
Nc1cccc2c1NC(=O)/C2=C/c1ccc2cn[nH]c2c1 [Example A56, (E)-3-((1H-indazol-6-yl)methylene)-7-aminoindolin-2-one] | < 5 µM | > 50 µM | – | – | < 5 µM | – | – | – | – | < 5 µM | < 5 µM
Cc1ccc2c(c1)/C(=C\c1ccc3c(/C=C/c4ccncc4)n[nH]c3c1)C(=O)N2 [Example A85, (E)-5-methyl-3-((3-((E)-2-(pyridin-4-yl)vinyl)-1H-indazol-6-yl)methylene)indolin-2-one] | < 5 µM | – | < 50% | – | < 5 µM | – | – | – | < 50% | < 5 µM | –
O=C1Nc2c(Cl)cccc2/C1=C\c1ccc2cn[nH]c2c1 [Example A43, (E)-3-((1H-indazol-6-yl)methylene)-7-chloroindolin-2-one] | < 5 µM | > 50 µM | > 50% | – | < 5 µM | – | – | – | – | 5 to 50 µM | –
CNC(=O)c1ccc2c(c1)NC(=O)C2=Cc1ccc2cn[nH]c2c1 (mixture of isomers) [Example A10, (E and Z)-(3-((1H-indazol-6-yl)methylene)-N-methyl-2-oxoindoline-6-carboxamide] | < 5 µM | < 5 µM | – | – | – | 20 to 50 µM | 20 to 50 µM | – | – | – | –
O=C1Nc2ccc(Cl)cc2C1=Cc1ccc2c(-c3cccnc3)n[nH]c2c1 (mixture of isomers) [Example A94, (E and Z)-5-chloro-3-((3-(pyridin-3-yl)-1H-indazol-6-yl)methylene)-indolin-2-one] | < 5 µM | – | < 50% | – | < 5 µM | – | – | – | < 50% | > 50 µM | –
